Measured values: patent US20020009464A1, “Modified glycosides, compositions comprised thereof and methods of use thereof” (priority 1997, published 2002)

Key:
[1] = Release of model active from glass layers monitored by absorbance at 510 nm; type: physicochemical; conditions: aqueous 5% Tween 20, constant agitation
Excerpt: Disperse Red 1 was incorporated as a model active in a glass of lactitol nonaacetate (ratio 0.1/100 g/g) by melt mixing. The release of model active from 0.5 mm and 3 mm thickness layers of glass, into either water or an aqueous solution of 5% Tween 20, was monitored by absorbance at 510 nm.

[2] = Glass transition temperature (Tg) by differential scanning calorimetry; conditions: DSC, average of two runs
Excerpt: The acetylated polyol was recovered by evaporating off the solvent and the derivative characterized by nuclear magnetic resonance spectroscopy (NMR) and differential scanning calorimetry (DSC).
Tgs were obtained as the average of two runs.

Row | Compound | time to complete release of active ([1]; 0.5 mm thickness glass) [h] | time to complete release of active ([1]; 3 mm thickness glass) [h] | Tg [2] [°C]
1 | CCN(CCO)c1ccc(N=Nc2ccc([N+](=O)[O-])cc2)cc1 [Disperse red 1] | 12 | 72 | 
2 | α-D-glucopyranosyl-1→6-mannitol nonaacetate [GPM nonaacetate] |  |  | 35
3 | α-D-glucopyranosyl-1→6-sorbitol nonaacetate [GPS nonaacetate] |  |  | 17.4
